# Laboratory results taken from ChEMBL document CHEMBL4808172, “Structure-Activity Relationship of Heterocyclic P2Y14 Receptor Antagonists: Removal of the Zwitterionic Character with Piperidine Bioisosteres” (J Med Chem, 2021).
# “And” between values parts separate entries of the source, which are not always exact repeats. Equal values may be shown once. The source made the active and inactive calls. No cut-off for these calls is given here.
# Legend:
# D(1B) dopamine receptor = D(1B) dopamine receptor (Homo sapiens, UniProt P21918); assay: Binding affinity to D5 receptor (unknown origin)
# [1] = target: T1, Alpha-1B adrenergic receptor (Homo sapiens, UniProt P35368); assay: Binding affinity to alpha1b (unknown origin)
# T1 sequence (P35368 whole entry): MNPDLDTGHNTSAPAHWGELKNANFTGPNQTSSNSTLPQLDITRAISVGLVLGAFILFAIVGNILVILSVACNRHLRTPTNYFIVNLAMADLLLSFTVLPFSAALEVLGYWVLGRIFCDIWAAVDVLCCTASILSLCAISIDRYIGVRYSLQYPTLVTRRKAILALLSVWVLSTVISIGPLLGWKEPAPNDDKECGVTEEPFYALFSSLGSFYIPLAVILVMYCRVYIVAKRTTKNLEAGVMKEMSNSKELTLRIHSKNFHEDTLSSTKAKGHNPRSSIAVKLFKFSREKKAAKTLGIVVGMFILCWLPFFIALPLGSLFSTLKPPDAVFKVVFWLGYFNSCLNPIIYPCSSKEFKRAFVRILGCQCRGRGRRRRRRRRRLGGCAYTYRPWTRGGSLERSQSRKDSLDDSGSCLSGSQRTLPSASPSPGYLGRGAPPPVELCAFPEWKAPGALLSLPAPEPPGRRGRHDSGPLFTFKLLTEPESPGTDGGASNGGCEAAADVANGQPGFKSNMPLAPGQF
# D(1A) dopamine receptor = D(1A) dopamine receptor (Homo sapiens, UniProt P21728); assay: Binding affinity to D1 receptor (unknown origin)
# [2] = target: T2, Alpha-2B adrenergic receptor (Homo sapiens) (UniProt P18089); assay: Inhibition of alpha2b (unknown origin) at 10 uM relative to control
# T2 sequence (whole entry): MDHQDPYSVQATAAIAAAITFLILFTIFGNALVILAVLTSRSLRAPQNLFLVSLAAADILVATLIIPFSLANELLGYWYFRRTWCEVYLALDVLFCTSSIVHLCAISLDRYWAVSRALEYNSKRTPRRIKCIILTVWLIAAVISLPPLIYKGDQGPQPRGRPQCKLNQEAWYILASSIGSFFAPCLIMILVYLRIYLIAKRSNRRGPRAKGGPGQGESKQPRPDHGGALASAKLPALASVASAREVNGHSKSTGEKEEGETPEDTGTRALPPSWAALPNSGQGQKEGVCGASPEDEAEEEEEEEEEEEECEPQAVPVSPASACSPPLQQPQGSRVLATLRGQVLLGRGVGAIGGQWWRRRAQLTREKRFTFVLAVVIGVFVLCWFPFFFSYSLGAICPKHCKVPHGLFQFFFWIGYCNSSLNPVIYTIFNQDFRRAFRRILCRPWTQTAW
# Histamine H4 receptor = Histamine H4 receptor (Homo sapiens, UniProt Q9H3N8); assay: Binding affinity to H4 receptor (unknown origin)
# [3] = target: T3, Sigma intracellular receptor 2 (Homo sapiens, UniProt Q5BJF2); assay: Inhibition of sigma 2 receptor (unknown origin) at 10 uM relative to control
# [4] = target: 5-hydroxytryptamine receptor 1D (Homo sapiens) (UniProt P28221); assay: Inhibition of 5HT1D (unknown origin) at 10 uM relative to control
# [5] = target: Sigma non-opioid intracellular receptor 1 (Homo sapiens, UniProt Q99720); assay: Binding affinity to sigma 1 receptor (unknown origin)
# [6] = target: T4, Alpha-2A adrenergic receptor (Homo sapiens, UniProt P08913); assay: Binding affinity to alpha2a (unknown origin)
# T4 sequence (P08913 whole entry): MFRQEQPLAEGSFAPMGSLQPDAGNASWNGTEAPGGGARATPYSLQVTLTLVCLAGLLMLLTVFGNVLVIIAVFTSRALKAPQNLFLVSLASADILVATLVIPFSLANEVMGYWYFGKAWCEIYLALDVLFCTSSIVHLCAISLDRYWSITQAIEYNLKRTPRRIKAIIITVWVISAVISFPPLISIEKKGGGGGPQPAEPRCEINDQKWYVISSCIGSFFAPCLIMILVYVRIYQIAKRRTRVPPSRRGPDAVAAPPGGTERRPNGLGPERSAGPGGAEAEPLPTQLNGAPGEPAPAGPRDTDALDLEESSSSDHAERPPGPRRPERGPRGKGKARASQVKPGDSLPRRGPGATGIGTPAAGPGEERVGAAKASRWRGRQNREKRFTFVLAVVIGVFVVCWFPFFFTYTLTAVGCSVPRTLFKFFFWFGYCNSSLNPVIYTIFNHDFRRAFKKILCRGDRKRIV
# [7] = target: Voltage-gated inwardly rectifying potassium channel KCNH2 (Homo sapiens, UniProt Q12809)
# Mus musculus [8] = assay: Antiinflammatory activity in mouse model of ovalbumin/Aspergillus-induced allergic asthma assessed as reduction in eosinophil counts in BALF at 20 umol/kg, ip administered 30 mins prior to allergen challenge and measured after 2 days post challenge; type: functional, organism-based; conditions: dose 20.0 µmol/kg, time 2.0 day
# P2Y purinoceptor 14 = target: T5, P2Y purinoceptor 14 (Homo sapiens, UniProt Q15391); assay: cell-based
# T5 sequence (Q15391 whole entry): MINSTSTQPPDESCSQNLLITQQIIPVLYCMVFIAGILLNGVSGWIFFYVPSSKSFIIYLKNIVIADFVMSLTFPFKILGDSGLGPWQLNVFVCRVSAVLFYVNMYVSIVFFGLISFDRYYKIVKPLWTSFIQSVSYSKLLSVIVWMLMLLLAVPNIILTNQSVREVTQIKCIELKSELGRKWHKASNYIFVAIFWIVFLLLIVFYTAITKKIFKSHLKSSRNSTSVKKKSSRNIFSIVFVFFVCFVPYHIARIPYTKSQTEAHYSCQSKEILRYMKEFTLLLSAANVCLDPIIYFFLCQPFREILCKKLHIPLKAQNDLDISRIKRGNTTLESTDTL
# [9] = Clearance in Wistar rat at 1 mg/kg, ip measured upto 24 hrs by HPLC-MS/MS method; type: ADME, organism-based; conditions: in vivo
# Mus musculus [10] = assay: Reversal of CCI-induced mechano-allodynia in mouse model of neuropathic pain at 10 umol/kg, ip measured after 3 to 5 hrs; type: functional, organism-based; conditions: dose 10.0 µmol/kg, time 3-5 hrs
# [11] = Elimination rate constant in Wistar rat at 0.5 mg/kg, iv measured upto 24 hrs by HPLC-MS/MS method; type: ADME, organism-based; conditions: in vivo
# [12] = Stability of compound in stimulated gastric fluid assessed as half life; type: ADME; conditions: simulated gi fluid
# [13] = Toxicity in mouse at 10 umol/kg, ip; conditions: in vivo, dose 10 µmol/kg
# [14] = Clearance in Wistar rat at 3 mg/kg, ip measured upto 24 hrs by HPLC-MS/MS method; type: ADME, organism-based; conditions: in vivo
# [15] = Clearance in Wistar rat at 10 mg/kg, ip measured upto 24 hrs by HPLC-MS/MS method; type: ADME, organism-based; conditions: in vivo
# [16] = AUC (0 to infinity) in Wistar rat at 1 mg/kg, ip measured upto 24 hrs by HPLC-MS/MS method; type: ADME, organism-based; set-up: route intraperitoneal, dose 1 mg/kg, time <=24; conditions: in vivo
# [17] = Bioavailability in Wistar rat at 10 mg/kg, ip measured upto 24 hrs by HPLC-MS/MS method; type: ADME, organism-based; conditions: in vivo
# [18] = Microsomal stability in mouse liver microsomes assessed as half life; type: ADME, Microsome
# [19] = Elimination rate constant in Wistar rat at 10 mg/kg, ip measured upto 24 hrs by HPLC-MS/MS method; type: ADME, organism-based; conditions: in vivo
# [20] = Stability of compound in stimulated intestinal fluid assessed as half life; type: ADME; conditions: simulated gi fluid
# [21] = Bioavailability in Wistar rat at 3 mg/kg, ip measured upto 24 hrs by HPLC-MS/MS method; type: ADME, organism-based; conditions: in vivo
# [22] = Bioavailability in Wistar rat at 0.5 mg/kg, iv measured upto 24 hrs by HPLC-MS/MS method; type: ADME, organism-based; conditions: in vivo
# HepG2 = assay: Cytotoxicity against human HepG2 cells; type: cell-based
# [23] = Stability in mouse plasma assessed as half life; type: ADME, cell-free
# [24] = Microsomal stability in rat liver microsomes assessed as half life; type: ADME, Microsome
# [25] = Elimination rate constant in Wistar rat at 3 mg/kg, ip measured upto 24 hrs by HPLC-MS/MS method; type: ADME, organism-based; conditions: in vivo
# [26] = Aqueous solubility of compound at pH 7.4; type: physicochemical; conditions: buffer
# [27] = Microsomal stability in human liver microsomes assessed as half life; type: ADME, Microsome
# [28] = target: T3, Sigma intracellular receptor 2; assay: Binding affinity to sigma 2 receptor (unknown origin)
# [29] = Elimination rate constant in Wistar rat at 1 mg/kg, ip measured upto 24 hrs by HPLC-MS/MS method; type: ADME, organism-based; conditions: in vivo
# [30] = Bioavailability in Wistar rat at 1 mg/kg, ip measured upto 24 hrs by HPLC-MS/MS method; type: ADME, organism-based; conditions: in vivo
# [31] = Stability in rat plasma assessed as half life; type: ADME, cell-free
# Translocator protein = Translocator protein (Homo sapiens, UniProt P30536); assay: Binding affinity to TSPO (unknown origin)
# Mus musculus [32] = assay: Reversal of CCI-induced mechano-allodynia in mouse model of neuropathic pain at 10 umol/kg, ip after 2 hrs; type: functional, organism-based; conditions: dose 10.0 µmol/kg
# [33] = Stability of compound in aqueous medium after 24 hrs in absence of PLE by HPLC analysis; type: physicochemical; conditions: buffer
# liver carboxylesterase = target: T6, liver carboxylesterase (Sus scrofa, UniProt Q29550); assay: Drug metabolism in pH 7.5 HEPES buffer assessed as porcine liver esterase-mediated compound hydrolysis by measuring half life measured up to 120 mins by HPLC analysis; type: ADME, tissue-based; conditions: pig
# T6 sequence (Q29550 whole entry): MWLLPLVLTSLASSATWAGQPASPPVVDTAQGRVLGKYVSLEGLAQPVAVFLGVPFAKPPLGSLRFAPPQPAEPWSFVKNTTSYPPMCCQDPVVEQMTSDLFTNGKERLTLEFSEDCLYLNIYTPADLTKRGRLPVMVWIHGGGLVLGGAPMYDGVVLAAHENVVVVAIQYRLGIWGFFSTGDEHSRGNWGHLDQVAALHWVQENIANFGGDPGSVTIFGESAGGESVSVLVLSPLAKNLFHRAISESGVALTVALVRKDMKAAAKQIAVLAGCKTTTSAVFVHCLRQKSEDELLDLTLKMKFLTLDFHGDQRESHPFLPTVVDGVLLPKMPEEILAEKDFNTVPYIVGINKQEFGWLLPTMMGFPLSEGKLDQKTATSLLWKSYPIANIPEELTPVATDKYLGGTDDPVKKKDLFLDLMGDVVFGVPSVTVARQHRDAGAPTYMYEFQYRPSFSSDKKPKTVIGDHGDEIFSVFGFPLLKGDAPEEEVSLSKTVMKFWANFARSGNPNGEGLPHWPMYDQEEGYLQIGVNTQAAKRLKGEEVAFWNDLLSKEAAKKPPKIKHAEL
# Chain of Sigma non-opioid intracellular receptor 1 (Q99720 whole entry): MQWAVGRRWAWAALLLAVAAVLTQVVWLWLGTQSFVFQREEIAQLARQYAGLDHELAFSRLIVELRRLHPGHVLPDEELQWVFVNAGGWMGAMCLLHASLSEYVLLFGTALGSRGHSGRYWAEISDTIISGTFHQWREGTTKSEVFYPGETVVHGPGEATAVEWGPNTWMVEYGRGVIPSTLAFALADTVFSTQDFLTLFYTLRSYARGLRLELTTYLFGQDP
# T3 sequence (Q5BJF2 whole entry): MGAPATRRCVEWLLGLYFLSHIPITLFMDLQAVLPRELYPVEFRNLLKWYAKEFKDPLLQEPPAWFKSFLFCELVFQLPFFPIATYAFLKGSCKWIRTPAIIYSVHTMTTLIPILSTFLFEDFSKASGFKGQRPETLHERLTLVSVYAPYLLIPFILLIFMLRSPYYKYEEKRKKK
# Chain of D(1B) dopamine receptor (P21918 whole entry): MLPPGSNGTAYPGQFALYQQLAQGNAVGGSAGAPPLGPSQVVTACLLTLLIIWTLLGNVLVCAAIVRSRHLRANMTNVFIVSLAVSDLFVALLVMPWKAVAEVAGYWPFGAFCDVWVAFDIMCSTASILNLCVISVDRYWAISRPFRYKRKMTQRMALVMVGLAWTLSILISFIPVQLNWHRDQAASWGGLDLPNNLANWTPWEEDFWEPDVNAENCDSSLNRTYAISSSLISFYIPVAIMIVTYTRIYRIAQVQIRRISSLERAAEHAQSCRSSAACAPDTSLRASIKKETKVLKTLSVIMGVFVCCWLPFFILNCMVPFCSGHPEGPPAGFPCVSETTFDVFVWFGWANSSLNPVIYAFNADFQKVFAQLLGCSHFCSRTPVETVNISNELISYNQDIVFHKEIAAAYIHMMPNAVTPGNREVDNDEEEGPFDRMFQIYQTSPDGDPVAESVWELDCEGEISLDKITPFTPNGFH
# Chain of D(1A) dopamine receptor (P21728 whole entry): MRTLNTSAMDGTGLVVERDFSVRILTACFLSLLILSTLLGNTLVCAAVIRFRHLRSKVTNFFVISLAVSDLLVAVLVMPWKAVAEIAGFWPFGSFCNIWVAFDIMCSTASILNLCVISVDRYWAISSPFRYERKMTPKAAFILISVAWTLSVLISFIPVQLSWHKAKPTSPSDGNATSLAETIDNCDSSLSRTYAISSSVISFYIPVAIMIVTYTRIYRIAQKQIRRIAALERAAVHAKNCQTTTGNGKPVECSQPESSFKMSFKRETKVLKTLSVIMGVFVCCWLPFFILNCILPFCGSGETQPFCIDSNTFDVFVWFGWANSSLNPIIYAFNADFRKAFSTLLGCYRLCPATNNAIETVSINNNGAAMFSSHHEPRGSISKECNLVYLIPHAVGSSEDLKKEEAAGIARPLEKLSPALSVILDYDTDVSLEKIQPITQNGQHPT
# Chain of Voltage-gated inwardly rectifying potassium channel KCNH2 (Q12809 whole entry): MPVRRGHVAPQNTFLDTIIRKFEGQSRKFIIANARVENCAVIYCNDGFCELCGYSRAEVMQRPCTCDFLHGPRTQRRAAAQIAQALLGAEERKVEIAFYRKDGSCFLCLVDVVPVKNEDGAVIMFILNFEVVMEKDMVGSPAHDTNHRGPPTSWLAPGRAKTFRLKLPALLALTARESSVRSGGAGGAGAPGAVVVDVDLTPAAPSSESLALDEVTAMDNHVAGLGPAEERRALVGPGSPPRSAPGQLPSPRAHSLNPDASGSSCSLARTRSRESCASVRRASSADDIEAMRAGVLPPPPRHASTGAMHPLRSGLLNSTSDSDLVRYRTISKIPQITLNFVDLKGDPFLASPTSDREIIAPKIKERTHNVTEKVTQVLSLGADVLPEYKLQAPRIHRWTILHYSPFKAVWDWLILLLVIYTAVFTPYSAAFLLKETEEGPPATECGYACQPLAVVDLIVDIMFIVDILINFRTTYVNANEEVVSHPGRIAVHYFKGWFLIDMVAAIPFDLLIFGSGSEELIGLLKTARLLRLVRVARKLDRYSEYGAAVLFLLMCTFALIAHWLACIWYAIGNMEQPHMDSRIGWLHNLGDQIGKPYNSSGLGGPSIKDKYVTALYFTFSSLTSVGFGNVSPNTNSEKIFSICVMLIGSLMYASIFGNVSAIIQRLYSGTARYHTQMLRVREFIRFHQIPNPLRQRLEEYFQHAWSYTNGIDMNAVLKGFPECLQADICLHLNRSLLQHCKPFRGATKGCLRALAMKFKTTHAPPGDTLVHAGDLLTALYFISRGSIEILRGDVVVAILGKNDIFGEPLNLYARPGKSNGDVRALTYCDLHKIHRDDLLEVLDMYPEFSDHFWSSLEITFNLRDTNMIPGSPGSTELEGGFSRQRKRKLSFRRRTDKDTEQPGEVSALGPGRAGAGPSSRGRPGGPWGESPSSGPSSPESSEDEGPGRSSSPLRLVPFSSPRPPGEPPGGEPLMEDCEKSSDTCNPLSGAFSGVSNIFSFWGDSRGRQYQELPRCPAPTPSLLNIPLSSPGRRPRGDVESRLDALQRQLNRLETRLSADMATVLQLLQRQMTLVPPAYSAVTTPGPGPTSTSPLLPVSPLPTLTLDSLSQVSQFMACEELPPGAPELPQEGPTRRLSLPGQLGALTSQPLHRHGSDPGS
# Chain of Histamine H4 receptor (Q9H3N8 whole entry): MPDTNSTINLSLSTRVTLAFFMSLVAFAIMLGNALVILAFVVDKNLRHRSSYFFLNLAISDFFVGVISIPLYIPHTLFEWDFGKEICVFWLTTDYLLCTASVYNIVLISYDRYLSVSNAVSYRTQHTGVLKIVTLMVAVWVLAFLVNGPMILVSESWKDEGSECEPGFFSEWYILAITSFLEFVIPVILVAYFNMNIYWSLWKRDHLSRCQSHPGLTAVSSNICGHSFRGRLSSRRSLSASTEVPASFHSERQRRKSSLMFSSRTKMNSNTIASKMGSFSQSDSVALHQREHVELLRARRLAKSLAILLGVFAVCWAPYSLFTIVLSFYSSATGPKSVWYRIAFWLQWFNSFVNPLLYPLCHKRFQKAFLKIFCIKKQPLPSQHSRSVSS
# Chain of 5-hydroxytryptamine receptor 1D (Homo sapiens) (P28221 whole entry): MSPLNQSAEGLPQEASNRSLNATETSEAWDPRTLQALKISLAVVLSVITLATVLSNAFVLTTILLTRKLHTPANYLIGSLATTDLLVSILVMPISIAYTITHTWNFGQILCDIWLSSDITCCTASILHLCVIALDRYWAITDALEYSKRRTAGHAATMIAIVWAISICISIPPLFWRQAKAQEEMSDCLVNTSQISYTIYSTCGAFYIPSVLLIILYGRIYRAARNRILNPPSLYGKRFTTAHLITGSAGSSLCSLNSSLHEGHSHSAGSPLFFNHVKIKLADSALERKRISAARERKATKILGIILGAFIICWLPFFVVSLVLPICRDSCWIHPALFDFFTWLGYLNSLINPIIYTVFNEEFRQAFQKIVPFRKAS
# Chain of Translocator protein (P30536 whole entry): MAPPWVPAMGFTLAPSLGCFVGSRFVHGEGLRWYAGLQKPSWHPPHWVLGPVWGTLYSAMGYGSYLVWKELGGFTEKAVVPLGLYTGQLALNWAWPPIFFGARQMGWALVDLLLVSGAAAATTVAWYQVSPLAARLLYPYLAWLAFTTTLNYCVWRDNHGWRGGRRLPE
smiles,measurement,setting,value
O=CN1CCC(c2ccc(-c3cc(C(=O)O)cc4cc(-c5ccc(C(F)(F)F)cc5)ccc34)cc2)CC1,Ki,D(1B) dopamine receptor,1440 nM
same,Ki,[1],2650 nM
same,Ki,D(1A) dopamine receptor,520 nM
same,inhibition,[2],82%
same,Ki,Histamine H4 receptor,1700 nM
same,inhibition,[3],84%
same,inhibition,[4],81%
same,Ki,[5],759 nM
same,Ki,[6],3970 nM
O=C(O)c1cc(-c2ccc(C3CCNCC3)cc2)c2ccc(-c3ccc(C(F)(F)F)cc3)cc2c1 [PPTN],EC50,[7],> 30000 nM
same,Activity,Mus musculus [8],Active
O=C(O)c1cc(-c2ccc(Br)cc2)cc(-n2cc(-c3ccc(C(F)(F)F)cc3)nn2)c1,IC50,P2Y purinoceptor 14,> 10000 nM
CC(C)(C)OC(=O)NC1(c2ccc(-c3cc(C(=O)O)cc(-n4cc(-c5ccc(C(F)(F)F)cc5)nn4)c3)cc2)CCC1,IC50,P2Y purinoceptor 14,> 10000 nM
O=C(O)c1cc(-c2ccc(-c3cc(CO)on3)cc2)c2ccc(-c3ccc(C(F)(F)F)cc3)cc2c1,CL/F,[9],23.8 mL/min/kg
same,Activity,Mus musculus [10],inactive
same,k el at 24 h,[11],0.000281 s⁻¹
same,t1/2,[12],2.68 h
same,Activity,[13],Non-Toxic
same,CL/F,[14],23.7 mL/min/kg
same,CL/F,[15],33.8 mL/min/kg
same,AUC,[16],700 ng·h/mL
same,F,[17],105%
same,t1/2,[18],> 4 h
same,Ki,[5],2680 nM
same,k el at 24 h,[19],6.47e-05 s⁻¹
same,t1/2,[20],> 4 h
same,F,[21],147%
same,F,[22],100%
same,IC50,HepG2,8470 nM
same,t1/2,[23],> 4 h
same,t1/2,[24],0.795 h
same,k el at 24 h,[25],4.11e-05 s⁻¹
same,solubility,[26],2.43 ug ml-1 and 4.96 uM
same,t1/2,[27],> 4 h
same,Ki,[28],4780 nM
same,k el at 24 h,[29],2.67e-05 s⁻¹
same,F,[30],139%
same,t1/2,[31],> 4 h
same,Ki,Translocator protein,4630 nM
same,Activity,Mus musculus [32],inactive
CN(C)C(=O)COC(=O)c1cc(-c2ccc(C3CCNCC3)cc2)cc(-n2cc(-c3ccc(C(F)(F)F)cc3)nn2)c1,Stabilty,[33],Stable
same,half-life,liver carboxylesterase,0.337 h
